In paper PMC11239005, “Preclinical studies of RA475, a guanidine-substituted spirocyclic candidate RPN13/ADRM1 inhibitor for treatment of ovarian cancer” (PLOS ONE, 2024):
Entries after “also recorded” stand apart in the source; their conditions may differ. Read-outs that look alike come from different tables or passages of the source.

Columns and labels:
PACS = experiment: MTT cytotoxicity assay, PACS; assay type: cell-based; details: 72 h
Experimental: (§1) All cell lines were obtained from the American Type Culture Collection (ATCC) and cultured in the specified medium supplemented with 10% fetal bovine serum, 100 IU/mL penicillin, and 100 μg/mL streptomycin at 37°C in a humidified 5% CO2/95% air incubator. Synthesis of new compounds is described in S1 File, and >95% purity of RA475, Up284 and its analogs were confirmed by NMR and MS. To assess drug cytotoxicity, cells were seeded at 2,500 cells/well (10,000 cells/well for MM lines) in 100 μL medium in 96-well plate as triplicates and after 24 h treated with compounds for a further 72 h. To assess cytotoxicity, the cells were incubated for 2 h at 37°C according to the manufacturer’s protocol with the Thiazolyl Blue Tetrazolium Bromide (20 μL/well of 5 mg/mL stock solution in water) (Sigma, M5655) and A570 measured using a Benchmark Plus microplate spectrophotometer (BIO-RAD). IC50 was estimated using Graphpad Prism 7 software.

BT549 = experiment: MTT cytotoxicity assay, BT549; assay type: cell-based; details: Homo sapiens, BT-549, BT549, 72 h
Experimental: as §1

HCT116 = experiment: MTT cytotoxicity assay, HCT116; assay type: cell-based; details: Homo sapiens, HCT-116, HCT116, 72 h
Experimental: as §1

MDA-MB-468 = experiment: MTT cytotoxicity assay, MDA-MB-468; assay type: cell-based; details: Homo sapiens, MDA-MB-468, 72 h
Experimental: as §1

Hep3B = experiment: MTT cytotoxicity assay, Hep3B; assay type: cell-based; details: Homo sapiens, 72 h
Experimental: as §1

SUM149 = experiment: MTT cytotoxicity assay, SUM149; assay type: cell-based; details: SUM149, 72 h
Experimental: as §1

SKOV3 = experiment: MTT cytotoxicity assay, SKOV3; assay type: cell-based; details: Homo sapiens, SK-OV-3, SKOV3, 72 h
Experimental: as §1

MCF7 = experiment: MTT cytotoxicity assay, MCF7; assay type: cell-based; details: Homo sapiens, MCF7, 72 h
Experimental: as §1

DLD1 = experiment: MTT cytotoxicity assay, DLD1; assay type: cell-based; details: Homo sapiens, DLD-1, DLD1, 72 h
Experimental: as §1

[1] = system: 4UbFL expressed in leg muscle; experiment: 4UbFL reporter in leg muscle of CD-1 mice; assay type: in vivo, mouse; details: for 4UbFL bioluminescence from leg muscle vs vehicle: single IP dose 40 mg/Kg, 4-96 h
Experimental: A patch of CD1 mouse leg was shaved of hair and 10 μg 4Ub-FL plasmid in 20 μL of PBS was injected into the quadriceps femoralis muscle followed immediately by injection of the 2 Needle Array to 5 mm depth encompassing the injection site and square wave EP (ElectroSquarePorator 833, BTX-2 Needle array 5mm gap, Harvard apparatus) delivered as eight pulses at 106 V for 20 ms with 200 ms intervals. One day post-EP, mice were anesthetized with isoflurane, injected IP with luciferin (0.3 mg in 100 μL water) and optical imaging was performed to determine basal level luciferase expression. Images were acquired for 10 min with a Xenogen IVIS 200 (Caliper, Hopkinton, MA). Equally sized areas were analyzed using Living Image 2.20 software.
Fig 3 Impact of RA475 on proteasome function. […] Actin was used as loading control. […] C) 4T1 and HCC1806 cells stably expressing 4UbFL were treated with compounds at indicated doses for 4 h and imaged by IVIS200 after the addition of luciferin substrate (50 μL, 7mg/mL in PBS). D) Sub-confluent cultures of ES2 cells stably expressing 4UbFL were seeded at 10,000 cells/well in 96-well microtiter plates. At 18 h post transfection, cells were treated with compounds or vehicle (DMSO) at the doses indicated. After a 4 h incubation, the cells were lysed and the luciferase activity in each cell lysate was determined with a luciferase assay kit (Promega) according to the manufacturer’s instructions. Bioluminescence was measured by using a luminometer (Glomax Multidetection system, Promega) E) A patch was shaved of hair on one leg of CD-1 mice, and 10 μg 4UbFL plasmid in 20 μL of PBS was injected into the quadriceps femoralis muscle followed immediately by injection of the 2 Needle Array to 5 mm depth encompassing the injection site and square wave electroporation (ElectroSquarePorator 833, BTX-2 Needle array 5mm gap, Harvard apparatus) delivered as eight pulses at 106V for 20 ms with 200 ms intervals. One day post electroporation, mice were anesthetized with isoflurane, injected IP with luciferin (0.3 mg in 100 μL water) and optical imaging was performed to determine basal level luciferase expression. Images were acquired for 10 min with a Xenogen IVIS 200 (Caliper, Hopkinton, MA). Equally sized areas were analyzed using Living Image 2.20 software. Mice were imaged weekly during treatment. Mice were randomized into three groups (n = 5) and treated IP once with Vehicle (25% (w/v) β-Hydroxypropylcyclodextrin in water, Sigma Aldrich) alone, RA475 (40 mg/Kg) or Up284 (40 mg/Kg) and mice were imaged again at 4 h, 24 h, 48 h, 72 h and 96 h later. F) Same as in E but RA475 (40mg/Kg) and ixazomib (10mg/Kg, recommended dose) were delivered orally. Thick line indicates median measurements. […]

TC1 = experiment: MTT cytotoxicity assay, TC1; assay type: cell-based; details: TC-1, TC1, 72 h
Experimental: as §1

SKMEL2 = experiment: MTT cytotoxicity assay, SKMEL2; assay type: cell-based; details: Homo sapiens
Experimental: as §1

## Cl.Cl.N#Cc1ccc(/C=C2/C(=O)/C(=C/c3ccc(C#N)cc3)C23CCN(C(=N)N)CC3)cc1 [RA475, 1,3-bis((E)-4-cyanobenzylidene)-2-oxo-7-azaspiro[3.5]nonane-7-carboximidamide dihydrochloride]
PACS
  IC50: 581 nM
BT549
  IC50: 229 nM
HCT116
  IC50: 430 nM
MDA-MB-468
  IC50: 292 nM
Hep3B
  IC50: 997 nM
SUM149
  IC50: 100 nM
SKOV3
  IC50: 294 nM
MCF7
  IC50: 742 nM
DLD1
  IC50: 495 nM
[1]; 40 mg/Kg IP
  4UbFL stabilization, fold over baseline: > 20 fold
[1]
  4UbFL bioluminescence from leg muscle vs vehicle: rapidly increased the bioluminescence
[1]; single oral (PO) 40 mg/Kg dose, 40 mg/kg
  stabilization of 4UbFL in muscle: much lower than seen for the single IV dose; also recorded: minimal stabilization
TC1
  IC50: 217 nM
SKMEL2; SK-MEL-2, 72 h
  IC50: 156 nM

## N#Cc1ccc(/C=C2/C(=O)/C(=C/c3ccc(C#N)cc3)C23CCNCC3)cc1 [Up284, reference compound]
PACS
  IC50: 125 nM
BT549
  IC50: 70 nM
HCT116
  IC50: 110 nM
MDA-MB-468
  IC50: 72 nM
Hep3B
  IC50: 160 nM
SUM149
  IC50: 90 nM
SKOV3
  IC50: 71 nM
MCF7
  IC50: 690 nM
DLD1
  IC50: 110 nM
[1]
  4UbFL bioluminescence from leg muscle vs vehicle: much weaker effect
TC1
  IC50: 140 nM
SKMEL2; SK-MEL-2, SKMEL2, 72 h, MTT, read-out: IC50
  IC50: 70 nM
